Experimental data published in paper PMC12631873 (Advanced Science, 2025).
Square brackets hold non-standard residues; d marks the D form. Peptide text beside a SMILES is read from it. * marks the point of attachment. X1 = CN1/C(=C/C=C/C=C/C2=[N+](CCCCCC(=O)*)c3ccc(S(=O)(=O)[O-])cc3C2(C)C)C(C)(C)c2cc(S(=O)(=O)O)ccc21; Hyp = O=C(O)[C@@H]1C[C@@H](O)CN1; Nlys = NCCCCNCC(=O)O; Ahx = NCCCCCC(=O)O

How the values were obtained:
[1] = 25% v/v mouse serum (Biosharp, BL1053A diluted in 1× PBS); conditions: 37 °C, up to 48 h
[2] = Serum stability test (HPLC); assay type: in vitro ADME, mouse; conditions: 37 °C; for HPLC chromatogram after 48 h of serum incubation: 25% mouse serum, 48 h vs 10 min; for HPLC chromatogram after 48 h of serum incubation / HPLC peak shape and elution time after 24 h of serum incubation: HPLC 646 nm; for HPLC chromatogram after 48 h of serum incubation / metabolised at 24 h / degradation in serum (in words): n = 3; for metabolised at 24 h: 25% v/v mouse serum in 1× PBS, 10 nmol probe, peak area normalized to 10 min, read-out: percent of the peptides proteolyzed after 24 h of serum incubation; for metabolised at 24 h / degradation in serum (in words): HPLC UV 646 nm; for HPLC peak shape and elution time after 24 h of serum incubation: mouse serum; for degradation in serum (in words): 25% v/v mouse serum, 24 h and even after 48 h
Method: Cy5‐labeled peptidomimetic probes (10 nmol) were incubated in 25% v/v mouse serum (Biosharp, BL1053A diluted in 1× PBS) at 37 °C. Aliquots (200 µL) were taken periodically at 0 (deadtime: ≈10 min), 2, 24, and 48 h, and added to 400 µL of 3.75% trichloroacetic acid in acetonitrile at 4 °C. Then, all samples were centrifuged to remove the precipitated serum proteins at 13800 g for 10 min at 4 °C. The supernatant (150 µL) was taken to mix with 550 µL of water (with 0.1% TFA) to centrifuge again at 2630 g for 5 min at 4 °C. Five microliter of the supernatant was mixed with 200 µL of water containing 0.1% TFA as the final samples for HPLC analysis at room temperature monitored by absorbance at 646 nm with the integral area of the intact fraction recorded. The peak area for the 10 min time point was designated as 100% intact, and each peak area at successive time points was normalized to the 10 min peak to calculate the percent compound remaining. All the experiments were repeated three times.

[3] = Routine (whole) blood tests after repeated dosing; assay type: in vivo, mouse; conditions: C57BL/6J mice, 3 weekly i.v. doses of 2 nmol over 14 days, n = 5
Method: Whole blood tests: Each C57BL/6J mouse (6–8 weeks old) was intravenously injected with 100 µL of PBS buffer or with each peptide or peptoid probe (2 nmol in 100 µL 1× PBS buffer per mouse) on days 0, 7, and 14. The mice were sacrificed on day 15, 24 h after the final injection. The heart, liver, spleen, lungs, and kidneys were collected from each mouse and processed into formalin‐fixed paraffin‐embedded sections for histological evaluation with H&E staining. Whole blood was collected. Both H&E and blood sample analyses were performed by Wuhan Servicebio.

cartilage = experiment: In vivo and ex vivo fluorescence imaging of cartilage uptake and retention in nude mice; design: species or system mouse; conditions: 1 nmol i.v., 0-96 h
From the text: All procedures for mouse maintenance and experiments strictly followed the policy of the Experimental Animal Ethics Committee of the Fifth Affiliated Hospital of Sun Yat‐sen University (protocol numbers: 00361, 00436). Balb/c nu mice (male, 10‐18 weeks old) were used for the general in vivo imaging experiments (Figure 3c–f; Figures S10–S14, Supporting Information). For Figure 3g,h and Figure S16 (Supporting Information), neonatal Balb/c mice (7 days old) were used. Female Balb/c mice (74 weeks old versus 12 weeks old) were used in the aged joint imaging experiment reported in Figure 4a–c and Figure S17 (Supporting Information). The RA model was made using female Balb/c mice (6‐8 weeks old) by intraperitoneal injection of an anti‐collagen antibody cocktail (1.5 mg per mouse; Chondrex, 53100) followed by selective subcutaneous injection of lipopolysaccharide (LPS, 12.5 µg per mouse, Chondrex, 53100) into the left hind paw three days later.^[ [30] ^] C57BL/6J mice (male, 6–8 weeks old) were used for the biocompatibility tests (Figures S23–S25, Supporting Information).
(§1) Typically, the fluorescence peptides or peptoids were prepared at a dose of 1 nmol (10 µM in 100 µL of 1× PBS buffer) and injected into the tail vein of each mouse 2 h prior to fluorescence imaging with an IVIS Spectrum imager (PerkinElmer Lumina III). For Figure 4, Figures S17 and S18 (Supporting Information) (joint aging and RA) and Figure S27 (Supporting Information), 2 nmol of Cy5‐(NlysO)7 (20 µM in 100 µL of 1× PBS buffer) were i.v. administered to each mouse. For 1‐week‐old neonatal mice, 1 nmol of Cy5‐(NlysO)7 (20 µM in 50 µL of 1× PBS buffer) was intravenously injected into each mouse. All in vivo imaging was performed 2 h post probe injection with the IVIS Spectrum imager (PerkinElmer, fluorescence: ex/em: 620/670 nm, exposure: 1 s, bing: 4, F/Stop: 2; field of view: A/B/C/Z). Mice were anesthesia with 3% isoflurane (RWD, R510‐22‐10) during image acquisition. Hair in the knee areas was removed before fluorescence imaging for mice in Figure 4a and Figure S17 (Supporting Information). The mice were euthanized following the final image acquisition and occasionally imaged again after skin and organ removal. Next, the airways, ankles, ears, paws, knees, tails, spines, and chest ribs were collected, imaged, and saved for subsequent histology analysis. All acquired fluorescence images were analyzed using the Living Image software (PerkinElmer). The fluorescence signal from each specimen was measured by quantifying the average radiation efficiency within the selected oval‐shaped regions‐of‐interest.
For the cartilage retention experiments (Figures S11 and S12, Supporting Information), Cy5‐(NlysO)7 (10 µM in 100 µL of 1× PBS buffer) was administered via tail vein to four male Balb/c nu mice (10 weeks old) at 2, 24, 48, and 96 h respectively, prior to fluorescence imaging using an IVIS Spectrum imaging system (ex/em: 620/670 nm, exposure: 1 s, bing: 4, F/Stop: 2). Following euthanasia, their cartilaginous tissues were harvested and imaged. The fluorescence images were analyzed and quantified as described above.

[4] = Organ fluorescence 2 h post-injection (clearance route); assay type: in vivo, mouse; conditions: nude mice, organs isolated 2 h post i.v. injection of 1 nmol
Method: as §1

Row | Molecule | serum stability (degradation in mouse serum) [1] | HPLC peak shape and elution time after 24 h of serum incubation [2] | routine blood analyses vs PBS control group [3] | in vivo retention in joints and ribs compared to peptide sequences Cy5-(GKO)7 and Cy5-R8 (cartilage) | clearance route from organ fluorescence [4] | also measured
1 | Cy5‐Nlys7 | No significant changes in peak shape and elution time even post 48 h |  |  |  |  | 
2 | Cy5‐(GNlys)7 | hardly degraded in the serum even after 48 h |  |  |  |  | 
3 | CN1/C(=C/C=C/C=C/C2=[N+](CCCCCC(=O)NCCCCCC(=O)NCC(=O)N3C[C@H](O)C[C@H]3C(=O)NCC(=O)N3C[C@H](O)C[C@H]3C(=O)NCC(=O)N3C[C@H](O)C[C@H]3C(=O)NCC(=O)N3C[C@H](O)C[C@H]3C(=O)NCC(=O)N3C[C@H](O)C[C@H]3C(=O)NCC(=O)N3C[C@H](O)C[C@H]3C(=O)NCC(=O)N3C[C@H](O)C[C@H]3C(N)=O)c3ccc(S(=O)(=O)[O-])cc3C2(C)C)C(C)(C)c2cc(S(=O)(=O)O)ccc21 [Cy5‐(GO)7] ({X1-Ahx}-G[Hyp]G[Hyp]G[Hyp]G[Hyp]G[Hyp]G[Hyp]G[Hyp]-NH2) |  |  |  |  |  | HPLC chromatogram after 48 h of serum incubation [2]: showed prominent peaks from peptide proteolysis; metabolised at 24 h [2]: ~25%
4 | CN1/C(=C/C=C/C=C/C2=[N+](CCCCCC(=O)NCCCCCC(=O)N(CCCCN)CC(=O)N(CCCCN)CC(=O)N(CCCCN)CC(=O)N(CCCCN)CC(=O)N(CCCCN)CC(=O)N(CCCCN)CC(=O)N(CCCCN)CC(N)=O)c3ccc(S(=O)(=O)[O-])cc3C2(C)C)C(C)(C)c2cc(S(=O)(=O)O)ccc21 [Cy5‐Nlys7] ({X1-Ahx}-[Nlys][Nlys][Nlys][Nlys][Nlys][Nlys][Nlys]-NH2) |  | No significant changes in peak shape and elusion time were noted | None of the measurements | stronger retention in the joints and ribs in vivo | may be cleared by the ki dneys and liver | 
5 | CN1/C(=C/C=C/C=C/C2=[N+](CCCCCC(=O)NCCCCCC(=O)NCC(=O)N(CCCCN)CC(=O)NCC(=O)N(CCCCN)CC(=O)NCC(=O)N(CCCCN)CC(=O)NCC(=O)N(CCCCN)CC(=O)NCC(=O)N(CCCCN)CC(=O)NCC(=O)N(CCCCN)CC(=O)NCC(=O)N(CCCCN)CC(N)=O)c3ccc(S(=O)(=O)[O-])cc3C2(C)C)C(C)(C)c2cc(S(=O)(=O)O)ccc21 [Cy5‐(GNlys)7] ({X1-Ahx}-G[Nlys]G[Nlys]G[Nlys]G[Nlys]G[Nlys]G[Nlys]G[Nlys]-NH2) |  | No significant changes in peak shape and elusion time were noted | None of the measurements | stronger retention in the joints and ribs in vivo | may be cleared by the ki dneys and liver | degradation in serum (in words) [2]: hardly degraded
6 | CN1/C(=C/C=C/C=C/C2=[N+](CCCCCC(=O)NCCCCCC(=O)NCC(=O)N[C@@H](CCCCN)C(=O)N3C[C@H](O)C[C@H]3C(=O)NCC(=O)N[C@@H](CCCCN)C(=O)N3C[C@H](O)C[C@H]3C(=O)NCC(=O)N[C@@H](CCCCN)C(=O)N3C[C@H](O)C[C@H]3C(=O)NCC(=O)N[C@@H](CCCCN)C(=O)N3C[C@H](O)C[C@H]3C(=O)NCC(=O)N[C@@H](CCCCN)C(=O)N3C[C@H](O)C[C@H]3C(=O)NCC(=O)N[C@@H](CCCCN)C(=O)N3C[C@H](O)C[C@H]3C(=O)NCC(=O)N[C@@H](CCCCN)C(=O)N3C[C@H](O)C[C@H]3C(N)=O)c3ccc(S(=O)(=O)[O-])cc3C2(C)C)C(C)(C)c2cc(S(=O)(=O)O)ccc21 [Cy5‐(GKO)7] ({X1-Ahx}-GK[Hyp]GK[Hyp]GK[Hyp]GK[Hyp]GK[Hyp]GK[Hyp]GK[Hyp]-NH2) |  |  |  |  | might be mainly cleared through kidneys | HPLC chromatogram after 48 h of serum incubation [2]: showed prominent peaks from peptide proteolysis; metabolised at 24 h [2]: ~25%
7 | Cy5‐(GNlysO)7 | hardly degraded in the serum even after 48 h |  |  |  |  | 
8 | CN1/C(=C/C=C/C=C/C2=[N+](CCCCCC(=O)NCCCCCC(=O)NCC(=O)N(CCCCN)CC(=O)N3C[C@H](O)C[C@H]3C(=O)NCC(=O)N(CCCCN)CC(=O)N3C[C@H](O)C[C@H]3C(=O)NCC(=O)N(CCCCN)CC(=O)N3C[C@H](O)C[C@H]3C(=O)NCC(=O)N(CCCCN)CC(=O)N3C[C@H](O)C[C@H]3C(=O)NCC(=O)N(CCCCN)CC(=O)N3C[C@H](O)C[C@H]3C(=O)NCC(=O)N(CCCCN)CC(=O)N3C[C@H](O)C[C@H]3C(=O)NCC(=O)N(CCCCN)CC(=O)N3C[C@H](O)C[C@H]3C(N)=O)c3ccc(S(=O)(=O)[O-])cc3C2(C)C)C(C)(C)c2cc(S(=O)(=O)O)ccc21 [Cy5‐(GNlysO)7] ({X1-Ahx}-G[Nlys][Hyp]G[Nlys][Hyp]G[Nlys][Hyp]G[Nlys][Hyp]G[Nlys][Hyp]G[Nlys][Hyp]G[Nlys][Hyp]-NH2) |  | No significant changes in peak shape and elusion time were noted | None of the measurements | stronger retention in the joints and ribs in vivo | might be mainly cleared through kidneys | degradation in serum (in words) [2]: hardly degraded
9 | Cy5‐(NlysO)7 | hardly degraded in the serum even after 48 h |  |  |  |  | 
